Experimental data published in PubChem BioAssay (NCI).
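Tested at 5 concentrations; 48 h exposure; 96-well plates; endpoints linearly interpolated, else capped at highest concentration. The concentration for full growth arrest is given as TGI.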

Legend:
Test in all cases: NCI-60 cell line screen, 48 h
[1] = tested on: OVCAR-5 ovarian
[2] = tested on: XF 498 CNS
[3] = tested on: SNB-78 CNS
[4] = tested on: CCRF-CEM leukemia
[5] = tested on: OVCAR-8 ovarian
[6] = tested on: HOP-62 NSCLC
[7] = tested on: NCI-H23 lung
[8] = tested on: KM20L2 colon
[9] = tested on: NCI-H460 lung
[10] = tested on: SK-OV-3 ovarian
[11] = tested on: HOP-92 NSCLC
[12] = tested on: OVCAR-4 ovarian
[13] = tested on: RXF 393 renal
[14] = tested on: SF-295 CNS
[15] = tested on: HCC-2998 colon

Measured: TGI

CC1(Br)S(=O)(=O)OCCOS1(=O)=O
> 100 µM: all assays above

CC(C)(C)c1cc(Oc2ccc(C#N)c(C#N)c2)cc(C(C)(C)C)c1
> 100 µM: all assays above
